From patent publication US9931335B2, “Desethylhydroxychloroquine for the treatment of diseases associated with inflammation” (The Board of Trustees of the Leland Stanford Junior …, priority 2013, dated 2018)
“Also recorded” adds a separate entry of the source.

What was measured:
[1] = test system: collagen-induced arthritis (CIA) in DBA/1 mice; assay: Collagen-induced arthritis (CIA) mouse model for RA, treatment from first immunization; assay type: in vivo; settings: 50 mg/kg/day oral gavage, 100 mg/kg/day loading day 14-21; vs vehicle, Mann Whitney U test P<0.05
[2] = test system: established EAE in SJL mice; assay: EAE mouse model for MS, treatment of established disease; assay type: in vivo; settings: for EAE clinical score (severity of established EAE): 100 mg/kg/day oral gavage from day 14, 50 mg/kg/day 8 days later; for EAE clinical score (severity of established EAE) / Inflammatory Foci Score in the parenchyma / Inflammatory Foci Score, total score / Inflammatory Foci Score in the meninges: vs vehicle; for Inflammatory Foci Score in the parenchyma / Inflammatory Foci Score, total score / Inflammatory Foci Score in the meninges: brain histology at termination; for Inflammatory Foci Score in the meninges: P<0.05 two-tailed T test
Excerpt: Experimental autoimmune encephalomyelitis (EAE), a mouse model for MS, was induced in SJL mice (n=10 per group) by immunization with proteolipid protein peptide 139-151 (PLP 139-151) in CFA. […] At the termination of the experiment, mice were sacrificed, and the brains harvested, fixed, sections histologically scored by a blinded examiner for the number of inflammatory foci in the meninges and parenchyma using an established “Inflammatory Foci Score” (Chang et al, Recovery from EAE is associated with decreased survival of encephalitogenic T cells in the CNS of B7-1/B7-2-deficient mice. European J. Immunology, 2003, 33(7):2022-32).

[3] = test system: DMM-induced OA in C57BL6 (B6) mice; assay: Destabilization of the medial meniscus (DMM) mouse model of osteoarthritis; assay type: in vivo; settings: 3 months, vs vehicle; for Cartilage Degeneration Score (OA score): aminoquinolines 100 mg/kg/day, atorvastatin 40 mg/kg/day, oral gavage from 1 week after DMM, two-tailed T test
Protocol: One week following surgical induction, treatment was initiated with vehicle control, hydroxychloroquine (HCQ), or desethylhydroxychloroquine (DHCQ) dosed at 100 mg/kg/day by oral gavage (once per day). After 3 months, mice were sacrificed, joints harvested, joint sections cut, and tissue sections stained with safranin-O. An examiner blinded to treatment used microscopy to score the severity of OA. The “Cartilage Degeneration Score” (also known as the “OA score”, “Severity Score” and “Histology Score”) was determined by a blinded examiner, and the two-tailed T test used to determine if there were statistical differences in the Cartilage Degeneration Scores between groups.
The histologic sections generated at the termination of the mouse OA experiment presented above and in FIG. 5 were subject to blinded scoring for the “Osteophyte Score” (measure of the amount of osteophyte or ectopic bone formation) and “Synovitis Score” (measure of the amount of synovial and joint inflammation). The scores between groups were compared by two-tailed T test.
Experiments were performed under protocols approved by the Stanford University Committee of Animal Research and in accordance with NIH guidelines. Murine OA was generated by surgically by destabilization of the DMM (Glasson, S., S., et al., Osteoarthritis Cartilage, 15: 1061-1069 (2007)).
Mice were euthanized 3 months after surgery. Their stifle joints were decalcified in EDTA solution, fixed in 4% paraformaldehyde, and embedded in paraffin. Serial 4 micron sections were cut and stained with toluidine blue. Scoring of arthritis in these histology sections was done according to a modified version of previously described composite scoring systems (Kamekura, S., et al. Osteoarthritis Cartilage 13: 632-641 (2005); Bendele, A. M., J Musculoskelet Neuronal Interact., 1: 363-376 (2001)). The “OA Score” was calculated as follows: cartilage degeneration (0-4) was multiplied by the width (1=1/3, 2=2/3, and 3=3/3 of surface area) of each third of the femoral-medial and tibial-medial condyles, and the scores for the 6 regions were summed. To evaluate osteophyte (ectopic bone) formation, we scored toluidine-blue-stained sections according to a previously described scoring system (Kamekura, S., et al. Osteoarthritis development in novel experimental mouse models induced by knee joint instability. Osteoarthritis Cartilage 13, 632-641 (2005)): 0, none; 1, formation of cartilage-like tissues; 2, increase of cartilaginous matrix; 3, endochondral ossification. To evaluate synovitis, we scored H&E-stained sections according to a previously described scoring system (Blom, A. B., et al. Synovial lining macrophages mediate osteophyte formation during experimental osteoarthritis. Osteoarthritis Cartilage 12, 627-635 (2004)): 0, no changes compared to normal joints; 1, thickening of the synovial lining and some influx of inflammatory cells; 2, thickening of the synovial lining and intermediate influx of inflammatory cells; and 3, profound thickening of the synovial lining (more than four cell layers) and maximal observed influx of inflammatory cells. Scores for osteophyte formation and synovitis were recorded for the femoral-medial and the tibial-medial condyles on the operated side of the joint, and the scores for the two regions were summed and statistical comparisons performed using a two-tailed T test.
Treatment was started 1 week after surgical induction of destabilization of the medial meniscus (DMM), a time point at which mice were at increased risk for the development of OA.

[4] = test system: established high-fat diet-induced NASH in C57BL/6 mice; assay: High fat diet-induced NASH in mice, treatment of established disease; assay type: in vivo, mouse; settings: 6 weeks; for steatosis percentage of whole area (liver histology): 10 mg/kg/day started after 2 weeks of high-fat diet; for steatosis percentage of whole area (liver histology) / serum ALT / serum AST: vs vehicle
Protocol: To evaluate the effect of DHCQ and HCQ on established NASH, C57BL/6 mice (8 per group) were fed a high-fat “western-style” diet (60% caloric content from fat; Taconic). Following initiation of the high-fat diet, after 2 weeks blood was drawn and analyzed for abnormal elevations in serum markers for NASH including AST and ALT. The AST and ALT became abnormally elevated following the initial 2 weeks of high-fat diet, and at that time treatment was initiated with HCQ (10 mg/kg/day), DHCQ (10 mg/kg/day), or vehicle control. After 6 weeks of treatment, mice were fasted and blood was collected for serum analysis and mice sacrificed for histologic analysis of liver pathology. FIG. 8A presents micrographs of representative liver tissue sections at both 10× and 20× magnification. […] AST and ALT levels in the collected serum were measured and 2-tailed T Tests used to compare levels between groups.

[5] = test system: ganglion cell layer (GCL) of the retina; assay: Retinal histology of mice dosed for 3 months; assay type: in vivo, mouse; settings: for number of cells (nuclei) in the GCL vs vehicle / nuclear shrinkage in the ganglion cell layer (GCL): 100 mg/kg/day, 3 months; for nuclear shrinkage in the ganglion cell layer (GCL): H&E
Excerpt: At the time of termination, the eyes from each treatment group were carefully microdissected to ensure the retina remained intact, the eye was fixed in formalin, and the fixed eye sectioned to visualize the retina. […] Representative images of H&E stained retinal sections are presented from each treatment group in FIG. 17.
Using the histologic and quantitative pathology methodology adapted from Shichiri, et al (Shichiri, et al, JBC. 2012, 287(4):2926-34. PMID 22147702), the H&E stained retinal sections were evaluated for number of nuclei in the ganglion cell layer (GCL) (FIG. 18). The graph presents quantitation of the number of nuclei in the GCL of the retina from the indicated treatment groups. The number of cells in the GCL of the retina for each treatment group was compared with the number of cells in vehicle-treated control by two-tailed T test.

| Compound | arthritis score (development of disease and disease activity) [1] | EAE clinical score (severity of established EAE) [2] | Inflammatory Foci Score in the parenchyma [2] | Inflammatory Foci Score, total score [2] | Inflammatory Foci Score in the meninges [2] | therapeutic activity in established EAE compared to HCQ ([2]; mouse, in vivo) | Osteophyte Score ([3]; 100 mg/kg/day oral gavage) | Cartilage Degeneration Score (OA score) [3] | Synovitis Score ([3]; oral gavage) | steatosis percentage of whole area (liver histology) [4] | AST and ALT compared to treatment with HCQ ([4]; 10 mg/kg/day) | serum ALT ([4]; 10 mg/kg/day) | serum AST ([4]; 10 mg/kg/day) | number of cells (nuclei) in the GCL vs vehicle [5] | nuclear shrinkage in the ganglion cell layer (GCL) [5] | Cartilage Degeneration Score (OA score) ([3]; listed as Hydroxychloroquine) | retinal cell loss in GCL, HCQ compared to DHCQ ([5]; P<0.05) |
| --- | --- | --- | --- | --- | --- | --- | --- | --- | --- | --- | --- | --- | --- | --- | --- | --- | --- |
| CC(CCCNCCO)Nc1ccnc2cc(Cl)ccc12 (stereo not shown) [DHCQ, desethylhydroxychloroquine] | statistically reduced development of disease and reduced disease activity; also recorded: statistically lower | reducing the severity of EAE | statistically reduced | statistically reduced | statistically reduced | more robust therapeutic activity than treatment with HCQ | statistically prevented and reduced; also recorded: statistically significant protection against the development of synovitis and osteophytes | statistically prevented and reduced the severity of OA; also recorded: statistically prevented and reduced the severity of cartilage degeneration | statistically prevented and reduced; also recorded: statistically significant protection against the development of synovitis and osteophytes | statistically reduced the steatosis percentage | statistical reductions in the AST and ALT as compared to treatment with HCQ | statistically reduced abnormal elevations | statistically reduced abnormal elevations | no reduction in the number of cells in the GCL | No increase in nuclear shrinkage in the GCL |  |  |
| CCN(CCO)CCCC(C)Nc1ccnc2cc(Cl)ccc12 (stereo not shown) [HCQ, hydroxychloroquine] | statistically reduced development of disease and reduced disease activity; also recorded: statistically lower | reducing the severity of EAE | trends towards reductions | trends towards reductions | reduced |  |  | only resulted in trends towards improvement; also recorded: did not result in a statistically significant reduction in the severity of OA |  | statistically reduced the steatosis percentage |  | only exhibited a trend towards reduction | only exhibited a trend towards reduction | significantly lower | increased nuclear shrinkage in the GCL | did not result in a statistically signification prevention or reduction in OA severity | statistically increased retinal cell loss |
